Reference: patent publication US20090178587A9, “Control of biofilms in industrial water systems” (priority 2001, published 2009)
“And” between values parts separate entries of the source, which are not always exact repeats. Equal values may be shown once. Read-outs that look alike come from different tables or passages of the source.

Legend:
[1] = system: biofilms of Pseudomonas aeruginosa (ATCC 15442); assay: MBEC (minimum biofilm eradication concentration) test, 96-peg Calgary biofilm device; type: cell-based
[2] = system: biofilm bacteria; conditions: 1.5 mg/L applied continuously for 18 hours; cited from earlier work
[3] = system: biofilm-associated Legionella; conditions: cited from earlier work
[4] = system: 3-day biofilms; conditions: cited from earlier work
[5] = system: sessile bacteria; conditions: pH 9; cited from earlier work
[6] = system: biofilms consisting of a consortium of Legionella, heterotrophic bacteria and amoebae; conditions: cited from earlier work
[7] = system: biofilms of Sphaerotilus natans; conditions: dynamic tests; maximum applied dose 20 ppm; cited from earlier work
[8] = system: HPC Bacteria (planktonic and biofilm); assay: Laboratory model water system, 48-hour biocide challenge and 14-day recovery: HPC bacteria; type: cell-based
[9] = system: biofilm bacteria; conditions: cited from earlier work
[10] = system: biofilm bacteria; conditions: 1 ppm residuals; cited from earlier work
[11] = system: Legionella pneumophila; conditions: 1 mg/L for 24 hours; either metal surface; cited from earlier work
[12] = system: 21-day old biofilms; conditions: 1 mg/L free residual; 30° C.; cited from earlier work
[13] = 1-day biofilm, one hour contact time, average, halogen biocides as Cl2, others as active ingredient
[14] = 1-day biofilm, one hour contact time, individual determinations, halogen biocides as Cl2, others as active ingredient
[15] = 7-day biofilm, one hour contact time, average, halogen biocides as Cl2
[16] = maximum log reduction, typically 2-12 hours after biocide application
[17] = relative to control after the 14-day recovery period

[Na+].[O-]Cl [Bleach, NaOCl]
1-Day Biofilm MBEC, avg. [1]: 3.8 ppm | 1-Day Biofilm MBEC, ppm [1]: 5.0, 2.5 ppm | 7-Day Biofilm MBEC, avg. [1]: 20 ppm | 7-Day Biofilm MBEC, ppm [1]: 20, 20 ppm

[O][Cl+][O-] [ClO2, Chlorine dioxide]
reduction of biofilm bacteria [2]: 99.4%

O=CCCCC=O [Glutaraldehyde, glutaraldehyde]
effect on levels of biofilm-associated Legionella [3]: non detectable levels | "no effect" level on biofilm removal [4]: 20 ppm | log reductions in sessile bacteria / biofilm counts [5]: 2 log | 1-Day Biofilm MBEC, avg. [1, 13]: 50 ppm | 1-Day Biofilm MBEC, ppm [1, 14]: 50, 50 ppm | 7-Day Biofilm MBEC, avg. [1, 15]: ~200 ppm | 7-Day Biofilm MBEC, ppm ([1]; 7-day biofilm, one hour contact time, individual determinations, halogen biocides as Cl2): 100 ppm and > 200 ppm | efficacy against biofilm-associated heterotrophic bacteria and Legionella [6]: effective

O=S(=O)([O-])[O-].OC[P+](CO)(CO)CO.OC[P+](CO)(CO)CO [THPS]
log reductions in sessile bacteria / biofilm counts [5]: 2 log

O=c1n(Cl)c(=O)n(Cl)c(=O)n1Cl [Trichlor, 1,3,5-trichloroisocyanuric acid]
1-Day Biofilm MBEC, avg. [1]: 1.9 ppm | 1-Day Biofilm MBEC, ppm [1]: 2.5, 1.2 ppm | 7-Day Biofilm MBEC, avg. [1]: 20 ppm | 7-Day Biofilm MBEC, ppm [1]: 20, 20 ppm

OCl [HOCl, Hypochlorous acid]
treatment level for biofilm control (but not eradication) [7]: > 20 ppm

O=[O+][O-] [ozone]
effect on levels of biofilm-associated Legionella [3]: did not appear to significantly affect

OO [H2O2, hydrogen peroxide]
log reductions in sessile bacteria / biofilm counts [5]: 2 log | 1-Day Biofilm MBEC, avg. [1]: >200 ppm | 1-Day Biofilm MBEC, ppm [1]: >100, >100 ppm

OBr [HOBr, hypobromous acid]
treatment level for biofilm control (but not eradication) [7]: 15 ppm

CC1(C)C(=O)N(Br)C(=O)N1Br [DBDMH, 1-3-dibromo-5,5-dimethylhydantoin]
Log Reduction, HPC Bacteria, Biofilm [8, 16]: 2.7 log | Log Reduction, HPC Bacteria, Planktonic [8, 16]: 3.6 log | Log Reduction, HPC Bacteria, Biofilm [8, 17]: 0.4 log | Log Reduction, HPC Bacteria, Planktonic [8, 17]: 0.2 log | 1-Day Biofilm MBEC, avg. [1]: 1.2 ppm | 1-Day Biofilm MBEC, ppm [1]: 1.2 ppm | 7-Day Biofilm MBEC, avg. [1]: 5 ppm | 7-Day Biofilm MBEC, ppm [1]: 5, 5 ppm | MBEC [1]: 1.4 mg/L

BrBr [bromine]
effect on levels of biofilm-associated Legionella [3]: non detectable levels | log reductions of biofilm bacteria [9]: ~3 log

CCC1(C)C(=O)N(Cl)C(=O)N1Br (centres unmarked) [BrMEH, bromo-chloro-methylethylhydantoin]
log kill of biofilm bacteria [10]: 0.7 log | treatment level for biofilm control (but not eradication) [7]: 10 ppm

CCCCCCCCCCSCCN.Cl [DTEA, decylthioethaneamine hydrochloride]
1-Day Biofilm MBEC, avg. [1, 13]: 100 ppm | 1-Day Biofilm MBEC, ppm [1, 14]: 100, 100 ppm

N#CC(Br)(Br)C(N)=O [DBNPA, Dibromonitrilopropionamide]
effect on levels of biofilm-associated Legionella [3]: non detectable levels | 1-Day Biofilm MBEC, avg. [1, 13]: 3.1 ppm | 1-Day Biofilm MBEC, ppm [1, 14]: 2.0 ppm and 4.1 ppm

CC1(C)C(=O)N(Cl)C(=O)N1Br [BCDMH, 1-bromo-3-chloro-5,5-dimethylhydantoin]
viable Legionella recovered from the biofilms [11]: no viable Legionella were recovered | log kill of biofilm bacteria [10]: 1 log | reduction of biofilm counts on mild steel [12]: 1.4 logs | reduction of biofilm counts on stainless steel [12]: 2.0 logs | 1-Day Biofilm MBEC, avg. [1]: 2.5 ppm | 1-Day Biofilm MBEC, ppm [1]: 2.5, 2.5 ppm | 7-Day Biofilm MBEC, ppm [1]: 5, 10 ppm | 7-Day Biofilm MBEC, avg. [1, 15]: 7.5 ppm | efficacy against biofilm-associated heterotrophic bacteria and Legionella [6]: also effective but was slower acting

CC(=O)OO [Peracetic Acid, peracetic acid]
1-Day Biofilm MBEC, avg. ([1]; 1-day biofilm, four-hour contact time, average (est.)): ~150 ppm | 1-Day Biofilm MBEC, ppm ([1]; 1-day biofilm, four-hour contact time, individual determinations, active ingredient): 100, >100 ppm
